Test: xn = mol fraction of the nth substance listed
Details: 298.15 K, 101 kPa, Liquid

COC(=O)OC [dimethyl carbonate] + CC(C)CC(C)(C)C
Details | mass density [kg/m3]
x1 = 0.0497 | 696.81
x1 = 0.1 | 706.22
x1 = 0.15 | 716.12
x1 = 0.2001 | 726.95
x1 = 0.2499 | 738.38
x1 = 0.2998 | 750.67
x1 = 0.3498 | 763.75
x1 = 0.4004 | 777.96
x1 = 0.4498 | 792.89
x1 = 0.5002 | 809.29
x1 = 0.5499 | 826.46
x1 = 0.5998 | 845.2
x1 = 0.6502 | 865.43
x1 = 0.7 | 887.02
x1 = 0.75 | 910.31
x1 = 0.8 | 935.94
x1 = 0.8499 | 963.69
x1 = 0.8999 | 993.77
x1 = 0.9498 | 1026.79
x1 = 1 | 1063.19

c1ccccc1 [benzene] + COC(=O)OC
Details | mass density [kg/m3]
x2 = 0 | 873.56

COC(=O)OC [dimethyl carbonate] + Cc1ccccc1
Details | mass density [kg/m3]
x1 = 0.0498 | 869.9
x1 = 0.0998 | 877.68
x1 = 0.15 | 885.75
x1 = 0.1999 | 893.96
x1 = 0.2498 | 902.39
x1 = 0.2999 | 911.1
x1 = 0.3498 | 919.98
x1 = 0.4 | 929.22
x1 = 0.4498 | 938.57
x1 = 0.4999 | 948.26
x1 = 0.5499 | 958.27
x1 = 0.5999 | 968.51
x1 = 0.65 | 979.06
x1 = 0.7 | 989.94
x1 = 0.7499 | 1001.14
x1 = 0.8001 | 1012.77
x1 = 0.8501 | 1024.73
x1 = 0.8998 | 1037.03
x1 = 0.9502 | 1049.89
x1 = 1 | 1063.19

Cc1ccccc1 [toluene] + COC(=O)OC
Details | mass density [kg/m3]
x2 = 0 | 862.5

CC(C)CC(C)(C)C [2,2,4-trimethylpentane] + COC(=O)OC
Details | mass density [kg/m3]
x2 = 0 | 688.04

COC(=O)OC [dimethyl carbonate] + CCCCCCC
Details | mass density [kg/m3]
x1 = 0.0501 | 690.16
x1 = 0.0999 | 700.47
x1 = 0.15 | 711.7
x1 = 0.1998 | 723.65
x1 = 0.2501 | 736.28
x1 = 0.2999 | 749.59
x1 = 0.3501 | 763.95
x1 = 0.4 | 779.05
x1 = 0.4499 | 795.07
x1 = 0.5001 | 812.18
x1 = 0.5498 | 830.25
x1 = 0.6 | 849.67
x1 = 0.6499 | 870.23
x1 = 0.7001 | 892.23
x1 = 0.75 | 915.72
x1 = 0.8 | 941.09
x1 = 0.8501 | 968.3
x1 = 0.9001 | 997.61
x1 = 0.9501 | 1029.09
x1 = 1 | 1063.19

CCCCCCC [heptane] + COC(=O)OC
Details | mass density [kg/m3]
x2 = 0 | 680.52

COC(=O)OC [dimethyl carbonate] + c1ccccc1
Details | mass density [kg/m3]
x1 = 0.0499 | 882
x1 = 0.1 | 890.57
x1 = 0.15 | 899.18
x1 = 0.2001 | 907.93
x1 = 0.2499 | 916.61
x1 = 0.3 | 925.59
x1 = 0.3498 | 934.53
x1 = 0.4 | 943.7
x1 = 0.45 | 952.89
x1 = 0.5001 | 962.25
x1 = 0.55 | 971.69
x1 = 0.6 | 981.28
x1 = 0.6499 | 990.96
x1 = 0.7001 | 1000.84
x1 = 0.7501 | 1010.88
x1 = 0.8001 | 1021.01
x1 = 0.8498 | 1031.36
x1 = 0.8999 | 1041.69
x1 = 0.9501 | 1052.35
x1 = 1 | 1063.19
